Source: ChEMBL document CHEMBL3885861, “Open TG-GATES”

Species on record: Rattus norvegicus
Assay: Open TG-GATES - Regimen: Single
Format: toxicity, organism-based, Sprague-Dawley
Set-up: regimen Single, gender Male, age 6 weeks
Settings: in vivo, po, 600 mg/kg, route gavage, dose level High; for APTT / Bas / Eos / Fbg / Hb / Ht / Lym / MCH / MCHC / MCV / Mono / Neu / PT / Plat / RBC / Ret / WBC: tissue Blood; for KIDNEY_L / KIDNEY_R / KIDNEY_TOTAL: tissue Kidney; for LIVER: tissue Liver; for A/G / ALP / ALT / AST / BUN / CRE / Ca / Cl / DBIL / GLC / IP / K / LDH / Na / PL / RALB / TBIL / TC / TG / TP / gamma-GTP: tissue Plasma

## C[C@](N)(Cc1ccc(O)c(O)c1)C(=O)O [METHYLDOPA]
3 h
  TERMINAL_BW: 186.5 g
  APTT: 15.6 s
  Bas: 0%
  Eos: 0.8%
  Fbg: 261.6 mg/dL
  Hb: 13.2 g/dL
  Ht: 39.8%
  Lym: 74.6%
  MCH: 22 pg
  MCHC: 33.1%
  MCV: 66.7 fL
  Mono: 3.4%
  Neu: 20.8%
  PT: 12.2 s
  Plat: 112.5 x10_4/uL
  RBC: 597.2 x10_4/ul
  Ret: 10.6%
  WBC: 68.3 x10_2/uL
  KIDNEY_L: 0.8 g
  KIDNEY_R: 0.8 g
  KIDNEY_TOTAL: 1.6 g
  LIVER: 7.8 g
  A/G: 0.9
  ALP: 1837.6 IU/L
  ALT: 55.2 IU/L
  AST: 84.4 IU/L
  BUN: 9.4 mg/dL
  CRE: 0.1 mg/dL
  Ca: 11.3 mg/dL
  Cl: 108.2 meq/L
  DBIL: 0.018 mg/dL
  GLC: 204.4 mg/dL
  IP: 9.8 mg/dL
  K: 4.6 meq/L
  LDH: 59.6 IU/L
  Na: 143.4 meq/L
  PL: 133.6 mg/dL
  RALB: 2.5 g/dL
  TBIL: 0.054 mg/dL
  TC: 76.6 mg/dL
  TG: 70.8 mg/dL
  TP: 5.4 g/dL
  gamma-GTP: 1 IU/L
6 h
  TERMINAL_BW: 187.6 g
  APTT: 17.1 s
  Bas: 0%
  Eos: 0.8%
  Fbg: 272.2 mg/dL
  Hb: 13.7 g/dL
  Ht: 41.1%
  Lym: 81%
  MCH: 21.7 pg
  MCHC: 33.3%
  MCV: 65.2 fL
  Mono: 2.4%
  Neu: 15.4%
  PT: 12.3 s
  Plat: 136.7 x10_4/uL
  RBC: 631 x10_4/ul
  Ret: 9.9%
  WBC: 49.9 x10_2/uL
  KIDNEY_L: 0.8 g
  KIDNEY_R: 0.8 g
  KIDNEY_TOTAL: 1.7 g
  LIVER: 7.7 g
  A/G: 0.9
  ALP: 1883.6 IU/L
  ALT: 52 IU/L
  AST: 81 IU/L
  BUN: 6 mg/dL
  CRE: 0.1 mg/dL
  Ca: 11.7 mg/dL
  Cl: 105.2 meq/L
  DBIL: 0.006 mg/dL
  GLC: 225.8 mg/dL
  IP: 13.1 mg/dL
  K: 5.4 meq/L
  LDH: 71.8 IU/L
  Na: 144.8 meq/L
  PL: 122 mg/dL
  RALB: 2.6 g/dL
  TBIL: 0.054 mg/dL
  TC: 76.6 mg/dL
  TG: 38 mg/dL
  TP: 5.6 g/dL
  gamma-GTP: 1 IU/L
9 h
  TERMINAL_BW: 188.2 g
  APTT: 17.2 s
  Bas: 0%
  Eos: 0.4%
  Fbg: 262.8 mg/dL
  Hb: 13.5 g/dL
  Ht: 40.3%
  Lym: 79%
  MCH: 22.1 pg
  MCHC: 33.6%
  MCV: 65.8 fL
  Mono: 2.6%
  Neu: 17.4%
  PT: 12.5 s
  Plat: 122.5 x10_4/uL
  RBC: 614.4 x10_4/ul
  Ret: 9.7%
  WBC: 52.4 x10_2/uL
  KIDNEY_L: 0.8 g
  KIDNEY_R: 0.8 g
  KIDNEY_TOTAL: 1.6 g
  LIVER: 7.3 g
  A/G: 0.9
  ALP: 1418.8 IU/L
  ALT: 46.2 IU/L
  AST: 67.8 IU/L
  BUN: 6.2 mg/dL
  CRE: 0.1 mg/dL
  Ca: 11.4 mg/dL
  Cl: 105.6 meq/L
  DBIL: 0.008 mg/dL
  GLC: 220 mg/dL
  IP: 11.8 mg/dL
  K: 4.9 meq/L
  LDH: 62 IU/L
  Na: 144.2 meq/L
  PL: 120 mg/dL
  RALB: 2.5 g/dL
  TBIL: 0.056 mg/dL
  TC: 75.4 mg/dL
  TG: 30.8 mg/dL
  TP: 5.3 g/dL
  gamma-GTP: 1 IU/L
24 h
  TERMINAL_BW: 180.6 g
  APTT: 16.9 s
  Bas: 0%
  Eos: 1%
  Fbg: 251.2 mg/dL
  Hb: 13.4 g/dL
  Ht: 39.6%
  Lym: 76%
  MCH: 21.9 pg
  MCHC: 33.9%
  MCV: 64.5 fL
  Mono: 3%
  Neu: 20%
  PT: 12.5 s
  Plat: 133.6 x10_4/uL
  RBC: 613.2 x10_4/ul
  Ret: 9.5%
  WBC: 49.4 x10_2/uL
  KIDNEY_L: 0.9 g
  KIDNEY_R: 0.9 g
  KIDNEY_TOTAL: 1.8 g
  LIVER: 7.5 g
  A/G: 0.9
  ALP: 1827.4 IU/L
  ALT: 50 IU/L
  AST: 73.4 IU/L
  BUN: 20 mg/dL
  CRE: 0.2 mg/dL
  Ca: 11.4 mg/dL
  Cl: 108.2 meq/L
  DBIL: 0.02 mg/dL
  GLC: 202.2 mg/dL
  IP: 8.8 mg/dL
  K: 4.8 meq/L
  LDH: 63.4 IU/L
  Na: 146.2 meq/L
  PL: 139.4 mg/dL
  RALB: 2.7 g/dL
  TBIL: 0.074 mg/dL
  TC: 84 mg/dL
  TG: 60.6 mg/dL
  TP: 5.7 g/dL
  gamma-GTP: 1 IU/L
